Experimental data from patent US5011825A, “Peptides influencing diuresis and natriuresis, a process for their preparation, agents containing them, and their use” (Hoechst Aktiengesellschaft, priority 1986, dated 1991).

Test system: rat
Assay: Diuretic, natriuretic and kaliuretic action, Experimental Design 1 (anesthetized rats, continuous NaCl infusion, i.v. bolus)
Format: in vivo
Details: for Urine / K^+ / Na^+: collection period 90 min; for Urine: control 1.267; for K^+: control 29.5; for Na^+: control 65.2
Description: A. […]
Experimental Design 1: The rats were anesthetized with 0.1 ml of 10% strength thiobutabarbital sodium/100 g of body weight i.p. They received an NaCl infusion from 60 min before administration of the substance and continuing during the experiment (2.5 ml of a 0.9% strength NaCl solution .h^-1.0.1 kg^-1 body weight). The test substance was administered as an i.v. bolus in 0.5 ml of a 0.9% strength solution/100 g of body weight.

Substance	Urine (dose 1 μg/kg i.v. bolus)	K^+ (dose 1 μg/kg i.v. bolus)	Na^+ (dose 1 μg/kg i.v. bolus)	Type of action on diuresis, natriuresis and kaliuresis (in words) (judged from the data against control)	Urine (dose 1 mg/kg rat i.v. bolus)	K^+ (dose 1 mg/kg rat i.v. bolus)	Na^+ (dose 1 mg/kg rat i.v. bolus)
Z-Arg-Ile-Asp(OtBu)-Arg-Ile-ol	0.79 mL/kg	27.8 µmol/kg	118.4 µmol/kg	antidiuretics with a natriuretic action			
H-RIFRI-OH [H-Arg-Ile-Phe-Arg-Ile-OH]					2.00 mL/kg	68.3 µmol/kg	211.0 µmol/kg
